Legend:
primary human astrocytes = assay: Transwell Migration Assay, primary human astrocytes; type: cell-based
Method: Approximately 10,000 cells were added to the upper side of a filter insert perforated with 5-8 μm holes, and induced to migrate through these pores toward the extracellular matrix protein vitronectin (coated on the underside of the filter). PcTX1 or control scrambled PcTX1 peptide was added to each compartment at the same time as the cells. BSA-coated filter inserts were used as negative controls. After 3 h, cells were fixed with 4% paraformaldehyde, and subsequently stained with crystal violet. Cells were counted on an inverted microscope, averaging five fields per Transwell chamber. Four-to-ten chambers were used under each condition.

ASIC2 = target: T1, ASIC2 (Homo sapiens, UniProt Q16515); assay: ASIC2 in planar lipid bilayers; type: biochemical
T1 sequence (Q16515 1-512): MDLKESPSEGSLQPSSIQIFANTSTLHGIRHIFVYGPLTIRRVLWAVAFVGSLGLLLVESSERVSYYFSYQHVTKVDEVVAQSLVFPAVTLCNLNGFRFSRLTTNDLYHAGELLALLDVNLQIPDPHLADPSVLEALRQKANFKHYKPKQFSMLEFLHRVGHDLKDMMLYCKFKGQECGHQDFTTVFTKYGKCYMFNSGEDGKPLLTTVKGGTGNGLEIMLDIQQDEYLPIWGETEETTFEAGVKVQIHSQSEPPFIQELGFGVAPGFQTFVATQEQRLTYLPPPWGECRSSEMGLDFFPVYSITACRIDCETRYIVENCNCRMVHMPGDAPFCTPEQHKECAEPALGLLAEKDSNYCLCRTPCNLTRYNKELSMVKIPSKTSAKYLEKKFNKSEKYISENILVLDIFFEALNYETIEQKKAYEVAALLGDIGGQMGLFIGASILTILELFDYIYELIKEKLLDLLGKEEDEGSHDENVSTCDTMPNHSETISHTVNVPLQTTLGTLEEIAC
From the text: (§1) Membrane potential was held at −60 mV, and the pHo was step decreased to 4.0 for 10 s, and then returned to 7.4 for 30 s before repeating the sequence.

[1] = target: T2, combination of ASIC1 and ASIC2 (Homo sapiens, UniProt P78348+Q16515); assay: Acid-activated currents in voltage-clamped Xenopus oocytes expressing ASIC1 and ASIC2; type: cell-based; settings: 400 μM amiloride; pHo 4.0; −60 mV
T2 construct: expressed in transfected cells; host or cells: Xenopus oocytes (cRNA injection)
From the text: (§2) FIGS. 8A-C show acid-activated ASIC currents in Xenopus oocytes. ASIC 2 (FIG. 8A), ASIC1 (FIG. 8B) and the combination of ASIC2 and ASIC1 (FIG. 8C) were examined. […] Each oocyte served as its own control.
as §1
(§3) Xenopus oocytes were used to express ASIC1 and ASIC2 mRNA individually and in combination. Oocyte preparation, cRNA injection, and two-electrode voltage clamp recordings were performed as described (33,67-69).
as §1

[2] = test system: ASIC containing channel activity in U87-MG cells; assay: Single channel recording, outside-out patches from U87-MG cells; type: cell-based, human; settings: 100 μM amiloride
Method: FIGS. 23A and B show single channel records of ASIC-containing channel activity in cell attached (FIG. 23A) and outside-out patches (FIG. 23B) from U87-MG cells.
Single channel recording of ASIC containing channel activity in both cell-attached and outside-out patches from U-87MG cells are shown in FIGS. 23A and B, respectively. For cell-attached patches, the pipette solution contained RPMI 1640, matching the external bath solution used for all whole-cell clamped records. For outside-out patches the pipette solution contained (in mM) K-gluconate, 100; KCl, 30; NaCl, 10; HEPES, 20; EGTA, 0.5; ATP, 4; pH 7.2. Membrane potentials for cell-attached patches were determined as the applied potential plus the membrane potential of the cell that was measured in the whole-cell configuration as −60 mV using the pipette solution for outside-out patches. The membrane potential for outside-out patches was the equilibrium potential for sodium plus the applied potential. The average single channel conductance in the cell-attached configuration was 5.7±0.5 pS. This average conductance was calculated from each of the clamp potentials. This was compatible with the observed whole-cell currents. The kinetics of channel opening and closing were relatively slow (on the order of 0.1 to 1 s), consistent to what has been observed for ASIC-like channels in bilayers (FIG. 23A).

[3] = test system: inward currents in D54-MG glioma cells; assay: Whole-cell patch clamp, D54-MG glioma cells; type: cell-based, human; settings: 100 μM amiloride
Method: FIGS. 7A-7C show representative whole-cell patch clamp recordings.
The amiloride-sensitive inward Na^+ currents are measured regardless of whether ASIC2 is absent or present (FIGS. 7A-D). Whole-cell patch clamp recordings were obtained from U87-MG, SK-MG, and D54-MG glioma cells in the basal state. […] This inhibition of the inward current occurred regardless of the absence or presence of ASIC2 mRNA (FIG. 7D) (as detected by RT-PCR as described above).

ASIC1 = target: T3, ASIC1 (Homo sapiens, UniProt P78348); assay: Acid-activated currents in voltage-clamped Xenopus oocytes expressing ASIC1; type: cell-based; settings: 400 μM amiloride; pHo 4.0; −60 mV
T3 sequence (P78348 1-528): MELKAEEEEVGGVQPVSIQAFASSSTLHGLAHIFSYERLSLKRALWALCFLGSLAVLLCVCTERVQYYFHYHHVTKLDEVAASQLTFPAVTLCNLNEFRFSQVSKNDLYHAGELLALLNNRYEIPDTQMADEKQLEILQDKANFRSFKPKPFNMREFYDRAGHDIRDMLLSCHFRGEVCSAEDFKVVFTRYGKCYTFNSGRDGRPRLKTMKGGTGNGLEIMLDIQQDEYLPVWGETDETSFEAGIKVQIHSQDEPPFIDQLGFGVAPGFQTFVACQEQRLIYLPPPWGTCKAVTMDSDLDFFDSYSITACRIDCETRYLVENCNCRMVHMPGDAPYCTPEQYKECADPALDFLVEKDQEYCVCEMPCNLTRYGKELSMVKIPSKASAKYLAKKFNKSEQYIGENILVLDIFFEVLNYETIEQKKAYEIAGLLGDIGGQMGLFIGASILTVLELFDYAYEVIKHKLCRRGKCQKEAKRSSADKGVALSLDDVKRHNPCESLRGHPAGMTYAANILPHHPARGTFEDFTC
From the text: as §2, §1, §3, §1

Compound: Psalmotoxin 1 [PcTX1]
- effect on Transwell migration (primary human astrocytes): no effect
- block of inward currents (ASIC2): not ASIC2

Compound: N=C(N)NC(=O)c1nc(Cl)c(N)nc1N [amiloride]
- inhibition of acid-activated currents [1]: inhibited
- inhibition of channels [2]: completely inhibited
- inhibition of inward currents [3]: inhibited
- inhibition of acid-activated currents (ASIC1): inhibited

From patent publication US20070092444A1, “Inhibition of inward sodium currents in cancer” (priority 2003, published 2007)
